{"source": "patent US7897730B2", "about": "“TRAIL receptor-binding agents and uses of the same” (Beijing Cotimes Biotech Ltd., priority 2006, dated 2011)", "key": {"[1]": {"tested_on": "binding of CTB003 to TRAIL-R2", "test": "Competitive inhibition ELISA with polypeptides", "set-up": "species or system human", "conditions": "1 μg/ml CTB003, various concentrations of peptide", "experimental": "(§1) ELISA plate was coated with 1 μg/ml TRAIL-R2-Fc fusion protein in PBS at 4° C. overnight. After washing three times with PBS, the plate was blocked with 3% BSA PBS at room temperature for one hour. […] The unbound antibodies were removed by washing three time with PBS, and then HRP-conjugated goat anti-mouse IgG1 was added at 37° C. for 30 minutes. After washing three times with PBS, TMB substrate buffer was added for 10 minutes and then the reaction was stopped by adding 2N H2SO4. The values of optical density were recorded in a ELISA plate reader with a dual wavelength at 450 nm/650 nm.\nas §1, with “μg/ml TRAIL-R1 or” for “μg/ml”"}, "[2]": {"tested_on": "binding of humanized chimeric CTB003 to TRAIL-R2", "test": "Competitive inhibition ELISA with polypeptides", "set-up": "species or system human", "conditions": "various concentrations of peptide", "experimental": "as §1, with “μg/ml TRAIL-R1 or” for “μg/ml”"}, "[3]": {"tested_on": "binding of humanized chimeric CTB003 to TRAIL-R1", "test": "Competitive inhibition ELISA with polypeptides", "set-up": "species or system human", "conditions": "various concentrations of peptide", "experimental": "as §1, with “μg/ml TRAIL-R1 or” for “μg/ml”"}, "[4]": {"tested_on": "binding of CTB003 to TRAIL-R1", "test": "Competitive inhibition ELISA with polypeptides", "set-up": "species or system human", "conditions": "1 μg/ml CTB003, various concentrations of peptide", "experimental": "as §1, with “μg/ml TRAIL-R1 or” for “μg/ml”"}, "[5]": {"tested_on": "human pancreatic cancer cells (Panc-1)", "test": "ATPLite cell viability, CTB003 with chemotherapeutic drug", "format": "cell-based", "conditions": "combination with CTB003", "experimental": "(§2) The cell lines selected for study included: human breast cancer cells (BT474), human colon cancer cells (SW620), human lung cancer cells (A437), human colon cancer cells (SW1116), and human pancreatic cancer cells (Panc 1). All cells were purchased from ATCC.\n(§3) After culture at 37° C. overnight, cell viability was determined using the ATPLite kit according to the manufacturer's instructions (Packard Instruments, Meriden, Conn.): add 50 μl of cell lysis buffer and then 50 μl of substrate buffer. The reaction was counted in a luminescent reader. Cell viability was calculated as (cpm of treated cells/cmp of control cells)×100%."}, "[6]": {"tested_on": "human colon cancer cells (SW1116)", "test": "ATPLite cell viability, CTB003 with chemotherapeutic drug or mono-specific antibody", "format": "cell-based", "conditions": "for effect on CTB003 killing: combination with CTB003", "experimental": "as §2, §3\nAfter culture at 37° C. for 16 h, cell viability was determined using the ATPLite kit according to the manufacturer's instructions (Packard Instruments, Meriden, Conn.): add 50 μl of cell lysis buffer and then 50 μl of substrate buffer. The reaction was counted in a luminescent reader. Cell viability was calculated as (cpm of treated cells/cmp of control cells)×100%."}, "[7]": {"tested_on": "Human B lymphoma cells (Ramos)", "test": "ATPLite cell viability, apoptosis-inducing activity", "format": "cell-based", "conditions": "10-1000 ng/ml antibody, 16 h", "experimental": "(§4) Tumor cells may express differential levels of cell surface of TRAIL-R1 and TRAIL-R2, therefore a monospecific antibody directed against either TRAIL-R1 or TRAIL-R2 may not able to bind to and induce apoptosis of all tumor cells when administered alone. […] Human T leukemia cells (Jurkat) only express TRAIL-R2 but not TRAIL-R1. Human B lymphoma cells (Ramos) express high levels of TRAIL-R1 but low levels of TRAIL-R2.\nAfter culture at 37° C. for 16 h, the cell viability of each culture was determined using the ATPLite kit according to the manufacturer's instructions (Packard Instruments, Meriden, Conn.): add 50 μl of cell lysis buffer and then 50 μl of substrate buffer. The reaction was counted in a luminescent reader. Cell viability was calculated as (cpm of treated cells/cmp of control cells)×100%."}, "[8]": {"tested_on": "Human B lymphoma cells (Ramos)", "test": "Flow cytometry analysis of cell surface binding", "conditions": "10 μg/ml antibody; cells express high TRAIL-R1, low TRAIL-R2", "from_the_text": "as §4\n(§5) 1×10^6 single cells were collected from cell culture medium and washed twice with FACS buffer (PBS containing 5% FCS, 0.1% NaN3, pH7.4). […] After washing twice with 1 ml FACS buffer, cells were further incubated with PE-conjugated goat anti-mouse IgG1 antibody on ice for 30 minutes. After washing twice with 1 ml FACS buffer, cells were suspended in 0.5 ml FACS buffer and 10,000 viable cells were analyzed by FACScan flow cytometer."}, "[9]": {"tested_on": "Human T leukemia cells (Jurkat)", "test": "Flow cytometry analysis of cell surface binding", "conditions": "10 μg/ml antibody; cells express TRAIL-R2 but not TRAIL-R1", "from_the_text": "as §4, §5"}, "[10]": {"tested_on": "MDA231 human breast cancer cell line", "test": "Xenograft model, tumor size", "format": "in vivo, Balb/c nude mice", "from_the_text": "Human cancer cell lines that were used for generation of murine xenograft models of human cancer are: a) MDA231 human breast cancer cell line; b) 7402 human liver cancer cell line; c) Colo205 human colon cancer cell lines; and d) MIAcapa human pancreatic cancer cell line. All cells were purchased from ATCC, and cultured in DMEM supplemented with 10% FCS.\nSix (6) to 8 week-old Balb/c nude mice were inoculated subcutaneously with 1×10^7 human cancer cells. At day 7-14 after tumor inoculation depending on inoculated tumor cell lines, over 90% mice developed viable tumor mass. The tumor-bearing mice were randomly divided into two groups: one was untreated control group, and another was CTB003 treated group. Human cancer tumor growth was evaluated by sizes of tumor. After inoculation, tumor sizes were measured weekly.\nThe treatment was repeated six times within three weeks.\n(§6) Six (6) to 8 week-old Balb/c nude mice were inoculated subcutaneously with 1×10^7 human MDA231 breast cancer cells. […] Human breast cancer tumor growth was evaluated by measuring the size of tumor. After inoculation the tumor sizes were measured in mice weekly. […]\nas §6"}, "[11]": {"tested_on": "human colon cancer cells (SW620)", "test": "ATPLite cell viability, CTB003 with chemotherapeutic drug", "format": "cell-based", "conditions": "combination with CTB003", "experimental": "as §2, §3"}, "[12]": {"tested_on": "human breast cancer cells (BT474)", "test": "ATPLite cell viability, CTB003 with chemotherapeutic drug", "format": "cell-based", "conditions": "combination with CTB003", "experimental": "as §2, §3"}, "[13]": {"tested_on": "human lung cancer cells (A437)", "test": "ATPLite cell viability, CTB003 with chemotherapeutic drug", "format": "cell-based", "conditions": "combination with CTB003", "experimental": "as §2, §3"}}, "data": [{"compound": "MVKVGDCTPWSDIECVHKESGTKHSGEAPA [peptide G, TRAIL-R2 (aa164-aa193), reference compound]", "values": [{"measurement": "inhibition of antibody binding", "setting": "[1]", "value": "inhibited the binding of CTB003 to TRAIL-R2 in a dose-dependent manner"}]}, {"compound": "VKDCTPWSDIECVHKE [peptide I]", "values": [{"measurement": "inhibition of antibody binding", "setting": "[1]", "value": "inhibited the binding of CTB003 to TRAIL-R2 in a dose-dependent manner"}, {"measurement": "inhibition of antibody binding", "setting": "[2]", "value": "inhibited the binding of humanized chimeric CTB003 to TRAIL-R2 in a dose-dependent manner"}, {"measurement": "inhibition of antibody binding", "setting": "[3]", "value": "inhibited the binding of humanized chimeric CTB003 to TRAIL-R1 in a dose-dependent manner"}, {"measurement": "inhibition of antibody binding", "setting": "[4]", "value": "inhibited the binding of CTB003 to TRAIL-R1 in a dose-dependent manner"}]}, {"compound": "Nc1ccn([C@@H]2O[C@H](CO)[C@@H](O)C2(F)F)c(=O)n1", "note": "[Gemcitabine, reference compound]", "values": [{"measurement": "effect on CTB003 killing", "setting": "[5]", "value": "synergistically enhanced CTB003 killing in a dose-dependent fashion"}]}, {"compound": "CCc1c2c(nc3ccc(OC(=O)N4CCC(N5CCCCC5)CC4)cc13)-c1cc3c(c(=O)n1C2)COC(=O)[C@]3(O)CC", "note": "[CTP-11, reference compound]", "values": [{"measurement": "effect on CTB003 killing", "setting": "[6]", "value": "synergistically enhanced CTB003 killing in a dose-dependent fashion"}]}, {"compound": "RKCRTGCPRGMVKVGDCTPWSDIECVHKES [peptide F, TRAIL-R2 (aa154-aa183), reference compound]", "values": [{"measurement": "inhibition of antibody binding", "setting": "[1]", "value": "inhibited the binding of CTB003 to TRAIL-R2 in a dose-dependent manner"}]}, {"compound": "CTB006: Murine monospecific antibody directed to TRAIL-R2 receptor; hybridoma CGMCC 1691", "values": [{"measurement": "susceptibility to antibody-induced apoptosis", "setting": "[7]", "value": "not susceptible"}, {"measurement": "effect on CTB003 killing", "setting": "[6]", "value": "synergistically enhanced CTB003 killing in a dose-dependent fashion"}, {"measurement": "cell killing by antibody alone", "setting": "[6]; single antibody", "value": "did not induce cell killing"}, {"measurement": "cell surface staining", "setting": "[8]", "value": "only weakly stained"}, {"measurement": "cell surface staining", "setting": "[9]", "value": "positively stained"}, {"measurement": "effect on tumor", "setting": "[10]; CTB006 alone, 100 μg i.p. twice a week for three times", "value": "tumor inhibition was observed but tumor size reduction was not remarkable"}]}, {"compound": "VGDCTPWSDIECVHKE [peptide H]", "values": [{"measurement": "inhibition of antibody binding", "setting": "[1]", "value": "inhibited the binding of CTB003 to TRAIL-R2 in a dose-dependent manner"}, {"measurement": "inhibition of antibody binding", "setting": "[2]", "value": "inhibited the binding of humanized chimeric CTB003 to TRAIL-R2 in a dose-dependent manner"}, {"measurement": "inhibition of antibody binding", "setting": "[3]", "value": "inhibited the binding of humanized chimeric CTB003 to TRAIL-R1 in a dose-dependent manner"}, {"measurement": "inhibition of antibody binding", "setting": "[4]", "value": "inhibited the binding of CTB003 to TRAIL-R1 in a dose-dependent manner"}]}, {"compound": "CC(=O)O[C@H]1C(=O)[C@@]2(C)[C@H]([C@H](OC(=O)c3ccccc3)[C@]3(O)C[C@H](OC(=O)[C@H](O)[C@@H](NC(=O)c4ccccc4)c4ccccc4)C(C)=C1C3(C)C)[C@]1(OC(C)=O)CO[C@@H]1C[C@@H]2O", "note": "[Taxol]", "values": [{"measurement": "effect on CTB003 killing", "setting": "[11]", "value": "synergistically enhanced CTB003 killing in a dose-dependent fashion"}]}, {"compound": "COc1cccc2c1C(=O)c1c(O)c3c(c(O)c1C2=O)C[C@@](O)(C(=O)CO)C[C@@H]3O[C@H]1C[C@H](N)[C@H](O)[C@H](C)O1", "note": "[Adriamycin, reference compound]", "values": [{"measurement": "effect on tumor", "setting": "[10]; Adriamycin alone, 100 μg per dose i.p. twice a week for three times", "value": "tumor inhibition was observed but tumor size reduction was not remarkable"}, {"measurement": "effect on CTB003 killing", "setting": "[12]", "value": "synergistically enhanced CTB003 killing in a dose-dependent fashion"}]}, {"compound": "N.N.[Cl][Pt][Cl]", "note": "[Cisplatin, reference compound]", "values": [{"measurement": "effect on CTB003 killing", "setting": "[13]", "value": "synergistically enhanced CTB003 killing in a dose-dependent fashion"}]}]}
